From paper PMC9698773, “Design, Synthesis, Molecular Modeling, and Anticancer Evaluation of New VEGFR-2 Inhibitors Based on the Indolin-2-One Scaffold” (Pharmaceuticals, 2022) come the findings set out here.

Values joined by “and” are separate entries in the source; they are usually repeats but may differ in a detail not shown here. Equal values may be shown once.

One assay has as its system HepG2 cells. Nature of the assay: Apoptosis analysis (Annexin V-FITC/PI, flow cytometry). It counts as cell-based, human. As to conditions: HepG2, 1.13 µM, 24 h. The protocol:
The HepG2 cells were treated with 17a (1.13 µM for 24 h), and the apoptotic effect was determined using Annexin V-FITC/PI assay. […] In addition, 17a enhanced the necrosis percentage 4-fold more than the control.
The apoptotic ability of compound 17a to the HepG2 cells was assessed using Annexin V-FITC/PI dual staining by flow cytometric analysis, as shown in the Supplementary Materials. […]
4.2.3. Cell cycle analysis […]
4.2.4. Apoptosis analysis
Flow cytometry cell apoptosis analysis was used to investigate the apoptotic effect of the synthesized compounds. HepG2 cells were treated with compound 17a (1.13 μM) for 24 h, collected by trypsin, centrifuged, washed two successive times with PBS, suspended in 500 μL binding buffer, and double stained with 5 μL Annexin V‐FITC and 5 μL PI in the dark at room temperature for 15 min. The stained cells were measured using a BD FACSCalibur™ Flow Cytometer and analyzed using Flowing software. […]
On the technique in general: Flow cytometry measures light scatter and fluorescence of single cells or particles in a stream.

For another assay, the system named is BAX. Description: BAX expression assay (Western blot). The format is cell-based, human. Particulars: HepG2, 1.13 µM, 24 h. Here is the method: The expression of BAX and Bcl-2 were evaluated in the HepG2 cells after treatment with 1.13 µM of compound 17a for 24 h. The Western blotting technique was utilized to determine the levels of Bax and Bcl-2 proteins and estimate the Bax/Bcl-2 ratio.
The expression of apoptotic BAX and antiapoptotic Bcl-2 proteins in the liver HepG2 cells treated with 1.13 μM of 17a was determined using Western blot analysis, as described in the Supplementary Materials. […]
Casp3 F: 5ʹ‐ […] ‐3ʹ
Casp3 R: 5ʹ‐ […] ‐3ʹ […]
β‐actin F: 5ʹ‐[…]‐3ʹ […]
β‐actin R: 5ʹ‐[…]‐3ʹ […]
4.2.6. Bax and Bcl‐2 expression assay
The expression of BAX and Bcl‐2 proteins were determined using Western blot anal‐ ysis. In brief, HepG2 cells were treated with control or with the synthesized compound 17a (1.13 μM). Then cells were lysed in 250 μL precold lysis buffer (pH 7.4: Tris‐Base [10 mM], NaCl [100 mM], ethylenediaminetetraacetic acid [EDTA, 25 mM], ethylene glycol bis (2‐ aminoethyl) tetraacetic acid [EGTA, 25 mM], 1% [v/v] NP‐40, and 1% [v/v] Triton X‐100) supplemented with 1:350 protease:phosphatase inhibitors cocktail (Sigma). The cells were immediately frozen at −20°C for 1.5 hours for further analysis, collected by cell scraper, sonicated 3 × 10 seconds, and centrifuged (13000 rpm, 15 minutes). Total protein concentrations in the supernatant were colorimetrically determined using the Pierce 660 nm Protein Assay method (Thermo Fisher Scientific, Rockford, IL), with BSA as the stand‐ ard. Equal amounts of protein (25 μg) samples were mixed with SDS‐loading buffer (pH 6.8: Tris‐HCl [700 mM], dithiothreitol [DTT, 600 mM], sodium dodecyl sulfate [SDS, 12%], glycerol [60%], and bromophenol blue [0.012%]), denatured by boiling at 95°C for 10 minutes, allowed to cool on ice for 15 minutes, vigorously vortexed for 30 seconds, loaded into SDS‐polyacrylamide gel and separated by an electrophoresis unit (Cleaver Scientific Ltd, UK), and transferred onto polyvinylidene fluoride membranes (Bio‐Rad) for 35 minutes using a Trans‐Blot SD semi‐dry transfer cell (Bio‐Rad) at 250 mA and 22 V. Mem‐ branes were blocked with 5% (w/v) blotting grade dry milk (Bio‐Rad) in Tris‐buffered saline/Tween‐20 (TBS‐T) (pH 7.5: Tris‐base [20 mM], NaCl [150 mM], and 0.05% [v/v] Tween‐ 20) while shaken for 1.5 hour at RT, and then incubated with the corresponding primary antibody against BAX (Biovision, USA) and Bcl‐2 (Bioimaging, system, syngene, UK) for 9‐10 hours at 4°C in a humidified chamber. […] Means of the detected blot intensities were then quantified, analyzed by the combined Bio‐Rad Image Lab soft‐ ware and their corresponding background subtracted, with normalization to the corre‐ sponding bands density of β‐actin as the sampling loading control. […]

For `O=C1Nc2ccccc2C1=Nc1ccc(C(=O)NNC(=S)Nc2ccccc2)cc1` [Compound 17a, 2-(4-((2-Oxoindolin-3-ylidene)amino)benzoyl)-N-phenylhydrazinecarbothioamide], in the assay on HepG2 cells, the “Apoptosis Early” value turned out to be 33.86%, the “Apoptosis Late” value amounted to 7.99%, the “Apoptosis Total” value is on record as 46.38% and the Necrosis was determined as 4.53%. Also, the “increase of necrosis percentage versus control” value in the assay with HepG2 cells stood at 4 fold. For the same compound, in the assay on BAX, the “increase of BAX expression versus control” value is 2.69 fold and 2.7 fold; the “increase of BAX/Bcl-2 ratio versus control” value was determined as 5 fold. Also, the “Protein Expression (Normalized to β-Actin) BAX” value in the assay on BAX (control 0.175) is 0.472. Further, the “BAX/Bcl-2 Ratio” value in the assay on BAX (control 0.41) was found to be 2.06.
